Test results published in the supplement of paper PMC10307832.

Experiments:
Test in all cases: relative viability (nuclei count vs DMSO), 5 days (fraction); higher = more cells survive
AGI-6780 + Olaparib = compound: O=C(Nc1cccc(C(F)(F)F)c1)Nc1cc(S(=O)(=O)NC2CC2)ccc1-c1ccsc1 [AGI-6780] + O=C(c1cc(Cc2n[nH]c(=O)c3ccccc23)ccc1F)N1CCN(C(=O)C2CC2)CC1 [Olaparib] (partner 8 µM)
How it was run: (§1)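 For relative viability, nuclei counts in treated wells were divided by those in vehicle wells. Lung cancer cell lines had been pin-tool dosed in 1536-well plates the day after seeding and cultured for 5 days, then fixed and stained in one step (final 0.05% Triton X-100, 1% formaldehyde, 1 ug/ml Hoechst) and imaged at 4×. Doses were one drug alone or a fixed anchor-drug dose plus five library-drug doses (not always all listed) in √10 steps, and values are duplicate-plate medians.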

AGI-6780 + Pemetrexed = compound: O=C(Nc1cccc(C(F)(F)F)c1)Nc1cc(S(=O)(=O)NC2CC2)ccc1-c1ccsc1 [AGI-6780] + Nc1nc2[nH]cc(CCc3ccc(C(=O)N[C@@H](CCC(=O)O)C(=O)O)cc3)c2c(=O)[nH]1 [Pemetrexed] (partner 0.2 µM)
How it was run: as §1

AGI-6780 + Palbociclib = compound: O=C(Nc1cccc(C(F)(F)F)c1)Nc1cc(S(=O)(=O)NC2CC2)ccc1-c1ccsc1 [AGI-6780] + CC(=O)c1c(C)c2cnc(Nc3ccc(N4CCNCC4)cn3)nc2n(C2CCCC2)c1=O [Palbociclib] (partner 0.5 µM)
How it was run: as §1

AGI-6780 + Alpelisib = compound: O=C(Nc1cccc(C(F)(F)F)c1)Nc1cc(S(=O)(=O)NC2CC2)ccc1-c1ccsc1 [AGI-6780] + Cc1nc(NC(=O)N2CCC[C@H]2C(N)=O)sc1-c1ccnc(C(C)(C)C(F)(F)F)c1 [Alpelisib] (partner 2 µM)
How it was run: as §1

Row | Cell Line | relative viability (AGI-6780 + Olaparib; first compound 0.08 µM) | relative viability (AGI-6780 + Olaparib; first compound 0.253 µM) | relative viability (AGI-6780 + Olaparib; first compound 0.8 µM) | relative viability (AGI-6780 + Olaparib; first compound 2.53 µM) | relative viability (AGI-6780 + Olaparib; first compound 8 µM) | relative viability (AGI-6780 + Pemetrexed; first compound 0.08 µM) | relative viability (AGI-6780 + Pemetrexed; first compound 0.253 µM) | relative viability (AGI-6780 + Pemetrexed; first compound 0.8 µM) | relative viability (AGI-6780 + Pemetrexed; first compound 2.53 µM) | relative viability (AGI-6780 + Pemetrexed; first compound 8 µM) | relative viability (AGI-6780 + Palbociclib; first compound 0.08 µM) | relative viability (AGI-6780 + Palbociclib; first compound 0.253 µM) | relative viability (AGI-6780 + Palbociclib; first compound 0.8 µM) | relative viability (AGI-6780 + Palbociclib; first compound 2.53 µM) | relative viability (AGI-6780 + Palbociclib; first compound 8 µM) | relative viability (AGI-6780 + Alpelisib; first compound 0.08 µM) | relative viability (AGI-6780 + Alpelisib; first compound 0.253 µM) | relative viability (AGI-6780 + Alpelisib; first compound 0.8 µM) | relative viability (AGI-6780 + Alpelisib; first compound 8 µM) | relative viability (AGI-6780 + Alpelisib; first compound 2.53 µM)
1 | NCI-H1734 | 0.722 | 0.633 | 0.654 | 0.492 | 0.574 | 0.479 | 0.438 | 0.429 | 0.426 | 0.42 | 0.371 | 0.379 | 0.297 | 0.285 | 0.352 | 0.752 | 0.705 | 0.671 | 0.733 | 
2 | NCI-H1755 | 0.912 | 0.868 | 0.852 | 0.766 | 0.83 | 0.496 | 0.495 | 0.475 | 0.435 | 0.402 | 0.452 | 0.463 | 0.426 | 0.433 | 0.419 | 0.991 | 0.936 | 0.948 | 0.898 | 0.83
3 | NCI-H1792 | 0.266 | 0.404 | 0.576 |  | 0.292 | 0.993 | 0.842 | 0.79 |  | 0.844 |  | 0.574 | 0.668 | 0.66 | 0.615 | 0.763 | 0.677 | 0.693 | 0.558 | 0.702
4 | NCI-H1793 | 0.904 | 0.845 | 0.902 | 0.695 | 0.805 | 0.838 | 0.926 | 0.964 | 0.671 | 0.959 | 0.347 | 0.328 | 0.342 | 0.262 | 0.287 | 0.744 | 0.831 | 0.943 | 0.675 | 0.562
5 | NCI-H1915 | 0.25 | 0.292 | 0.258 | 0.208 | 0.26 | 0.478 | 0.491 | 0.552 | 0.538 | 0.452 | 0.525 | 0.506 | 0.518 | 0.46 | 0.524 | 1.02 | 0.963 | 1.04 | 1.04 | 0.992
6 | NCI-H1944 | 0.464 | 0.412 | 0.448 |  | 0.395 | 0.642 | 0.627 | 0.611 |  | 0.684 | 0.365 | 0.331 | 0.32 |  | 0.403 | 0.862 | 0.886 | 0.821 | 0.767 | 0.7
7 | NCI-H1975 | 0.78 | 0.731 | 0.804 | 0.722 | 0.806 | 0.313 | 0.275 | 0.299 | 0.288 | 0.29 | 0.569 | 0.673 | 0.531 | 0.492 | 0.584 | 0.71 | 0.62 | 0.653 | 0.523 | 0.526
8 | NCI-H1993 | 0.831 | 1.11 | 1.13 |  | 1.09 | 0.5 | 0.669 | 0.634 |  | 0.542 | 0.693 | 0.649 | 0.78 |  | 0.609 | 0.788 | 0.675 | 0.736 | 0.693 | 0.653
9 | NCI-H2009 | 0.643 | 0.745 | 0.67 | 0.644 | 0.625 | 1.14 | 1.1 | 1.01 | 1.14 | 0.957 | 0.198 | 0.158 | 0.262 | 0.194 | 0.236 | 1.21 | 1.12 | 1.17 | 1.25 | 1.13
10 | NCI-H2023 | 0.5 | 0.444 | 0.437 | 0.374 | 0.492 | 0.283 | 0.235 | 0.242 | 0.256 | 0.204 | 0.394 | 0.372 | 0.421 | 0.357 | 0.4 | 0.674 | 0.595 | 0.596 | 0.617 | 0.447
11 | NCI-H2085 | 0.823 | 0.739 | 0.738 | 0.849 | 0.761 | 0.935 | 0.963 | 0.911 | 1.14 | 0.906 | 0.469 | 0.5 | 0.469 | 0.535 | 0.5 | 0.965 | 0.978 | 0.976 | 0.885 | 0.949
12 | NCI-H2087 | 0.674 | 0.563 | 0.524 | 0.53 | 0.637 | 0.702 | 0.637 | 0.696 | 0.636 | 0.754 | 0.244 | 0.265 | 0.221 | 0.25 | 0.245 | 1.17 | 1.1 | 1.15 | 1.14 | 0.983
